Measured values: patent US20230322735A1, “AZETIDINYL TRYPTAMINES AND METHODS OF TREATING PSYCHIATRIC DISORDERS” (priority 2020, published 2023)
Structures can show the parent of a compound that is named as a salt. Where two headings read alike, the source gives them in different places.

Assays:
[1] = biological target: T1, 5-HT2B receptor (Homo sapiens, UniProt P41595); assay: FLIPR Ca2+ flux agonist assay at 5-HT2B (HEK293); type: cell-based; conditions: for 5-HT2B % Act @ Max Dose: Ca2+ flux, agonist mode, HEK293
T1 construct: host or cells: HEK293
Method: (§1) A solution of 250 mM probenecid in 1 mL FLIPR assay buffer was prepared fresh. This was combined with a fluorescent dye (Fluo-4 Direct™) to make a final assay concentration of 2.5 mM. […] The fluorescent dye was then added to the assay plate along with assay buffer to a final volume of 40 μL. The cell plate was incubated for 50 min at 37° C. and 5% CO2 and placed into the FLIPR Tetra along with the compound plate. 10 μL of references and compounds were then transferred from the compound plate into the cell plate and the fluorescent signal was read.

[2] = biological target: T2, 5-HT2A receptor (Homo sapiens, UniProt P28223); assay: FLIPR Ca2+ flux agonist assay at 5-HT2A (HEK293); type: cell-based
T2 construct: host or cells: HEK293
Method: as §1

[3] = Stability in mouse brain homogenate; conditions: for half-life at 1 μM: male, CD-1, mouse, mouse brain homogenate; for % Compound Remaining (after 120 min) / t1/2: mouse brain homogenate (male CD-1), 1 μM, 37° C.
[4] = biological target: T3, 5-HT1A receptor (Homo sapiens, UniProt P08908); assay: FLIPR Ca2+ flux agonist assay at 5-HT1A (CHO cells); type: cell-based; conditions: for fold more potent at 5-HT1A than dimethyl (and methylethyl) counterparts: Ca2+ flux EC50 compared with DMT/MET, psilocin/4-HO-MET, 5-MeO-DMT; for 5-HT1A % Act @ Max Dose: Ca2+ flux, agonist mode, CHO cells
T3 construct: host or cells: CHO cells
T3 sequence (P08908 1-422): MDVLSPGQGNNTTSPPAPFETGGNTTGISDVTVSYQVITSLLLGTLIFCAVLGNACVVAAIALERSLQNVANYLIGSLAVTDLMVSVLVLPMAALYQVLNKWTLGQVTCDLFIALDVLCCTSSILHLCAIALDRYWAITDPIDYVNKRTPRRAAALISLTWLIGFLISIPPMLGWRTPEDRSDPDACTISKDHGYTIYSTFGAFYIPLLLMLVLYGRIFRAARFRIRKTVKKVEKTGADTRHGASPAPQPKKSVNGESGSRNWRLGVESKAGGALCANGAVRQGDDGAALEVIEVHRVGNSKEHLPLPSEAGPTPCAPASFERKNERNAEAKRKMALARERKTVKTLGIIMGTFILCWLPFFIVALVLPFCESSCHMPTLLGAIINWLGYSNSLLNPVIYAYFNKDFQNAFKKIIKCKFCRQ
Method: as §1

[5] = Stability in rat brain homogenate; conditions: for half-life at 1 μM: male, Sprague Dawley, rat, rat brain homogenate; for % Compound Remaining (after 120 min) / t1/2: rat brain homogenate (male Sprague Dawley), 1 μM, 37° C.
[6] = system: C57BL/6 mice; assay: Head twitch response (HTR) in mice; type: in vivo, mouse; conditions: SC; for maximal effect in the HTR assay: maximum over doses tested
[7] = Metabolic stability in human liver microsomes (HLM); conditions: for half-life at 1 μM / microsomal CLint at 1 μM: both, human, pooled human liver microsomes, pH 7.4; for metabolic stability in HLM compared with dimethyl counterpart: vs DMT, psilocin, 5-MeO-DMT respectively; for t1/2: HLM, 1 μM test compound, 0.50 mg protein/mL, NADPH, 37° C., 60 min
[8] = Chemical stability of the product on storage and analysis; type: physicochemical; conditions: storage and handling
Method: Note: The product 2 is unstable and should be stored frozen, protected from light, and under inert gas. If stored properly, stability has been confirmed by qNMR for at least 1 month.
A mixture of 3-(2-(azetidin-1-yl)ethyl)-1H-indol-4-ol (2, 50 mg, 231.18 μmol, 1 eq) and pyridine (23.77 mg, 300.54 μmol, 24.26 μL, 1.3 eq) in DCM (1 mL) was cooled to 0° C. Then acetic anhydride (25.96 mg, 254.30 μmol, 23.82 μL, 1.1 eq) was added dropwise at 0° C. and the resulting mixture was stirred at 25° C. for 1 h. At this time, the solvent was removed and the residue was purified by prep-HPLC (column=Waters Xbridge BEH C18 (100*30 mm, 10 μm); mobile phase=water(NH4HCO3)-ACN, B %=5%-40%; 10 min run time) to provide 3-(2-(azetidin-1-yl)ethyl)-1H-indol-4-yl acetate (4) as a white solid (20 mg, 33% yield). ^1H NMR (400 MHz, DMSO-d6) δ 11.01 (br s, 1H), 7.22 (d, J=8.0 Hz, 1H), 7.11 (d, J=1.6 Hz, 1H), 7.02 (t, J=8.0 Hz, 1H), 6.64 (d, J=7.6 Hz, 1H), 3.09 (t, J=6.8 Hz, 4H), 2.57-2.54 (m, 4H), 2.32 (s, 3H), 1.96-1.90 (m, 2H); LCMS (RT=0.983 min, MS calc.: 258.14, [M+H]+=259.1).

[9] = Pro-drug conversion to Compound 2 after administration to an animal; type: in vivo; conditions: when administered to an animal, for example a human
[10] = biological target: T4, human 5-HT2C receptor (Homo sapiens, UniProt P28335); assay: cell-based; conditions: Ca2+ flux, agonist mode
T4 sequence (P28335 33-458): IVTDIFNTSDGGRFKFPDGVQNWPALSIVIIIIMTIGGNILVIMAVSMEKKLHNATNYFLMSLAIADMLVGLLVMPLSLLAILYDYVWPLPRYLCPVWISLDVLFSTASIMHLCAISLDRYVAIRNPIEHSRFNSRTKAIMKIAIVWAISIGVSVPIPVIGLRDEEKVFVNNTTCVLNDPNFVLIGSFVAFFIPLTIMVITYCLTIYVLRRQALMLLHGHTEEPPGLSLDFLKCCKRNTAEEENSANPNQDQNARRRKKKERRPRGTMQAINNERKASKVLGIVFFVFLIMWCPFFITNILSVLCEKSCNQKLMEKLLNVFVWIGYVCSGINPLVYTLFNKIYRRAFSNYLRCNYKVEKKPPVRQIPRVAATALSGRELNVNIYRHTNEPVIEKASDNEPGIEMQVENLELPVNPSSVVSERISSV

[11] = Ca2+ flux, agonist mode, HEK293
[12] = Ca2+ flux, agonist mode, HEK293, read-out: 5-HT2A EC50

T2 sequence (P28223 whole entry): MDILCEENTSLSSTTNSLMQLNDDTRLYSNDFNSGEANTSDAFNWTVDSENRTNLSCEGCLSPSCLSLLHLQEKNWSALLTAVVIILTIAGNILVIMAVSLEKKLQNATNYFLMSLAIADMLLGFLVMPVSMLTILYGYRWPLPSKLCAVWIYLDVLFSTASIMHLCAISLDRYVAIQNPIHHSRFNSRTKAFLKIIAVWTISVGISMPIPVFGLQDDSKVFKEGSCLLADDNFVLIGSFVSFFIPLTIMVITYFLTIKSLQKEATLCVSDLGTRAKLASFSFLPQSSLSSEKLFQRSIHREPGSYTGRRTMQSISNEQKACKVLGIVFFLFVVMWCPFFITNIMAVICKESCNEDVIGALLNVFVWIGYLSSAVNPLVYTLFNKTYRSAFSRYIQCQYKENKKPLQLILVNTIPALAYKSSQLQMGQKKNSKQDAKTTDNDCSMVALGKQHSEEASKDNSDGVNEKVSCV
T1 sequence (P41595 whole entry): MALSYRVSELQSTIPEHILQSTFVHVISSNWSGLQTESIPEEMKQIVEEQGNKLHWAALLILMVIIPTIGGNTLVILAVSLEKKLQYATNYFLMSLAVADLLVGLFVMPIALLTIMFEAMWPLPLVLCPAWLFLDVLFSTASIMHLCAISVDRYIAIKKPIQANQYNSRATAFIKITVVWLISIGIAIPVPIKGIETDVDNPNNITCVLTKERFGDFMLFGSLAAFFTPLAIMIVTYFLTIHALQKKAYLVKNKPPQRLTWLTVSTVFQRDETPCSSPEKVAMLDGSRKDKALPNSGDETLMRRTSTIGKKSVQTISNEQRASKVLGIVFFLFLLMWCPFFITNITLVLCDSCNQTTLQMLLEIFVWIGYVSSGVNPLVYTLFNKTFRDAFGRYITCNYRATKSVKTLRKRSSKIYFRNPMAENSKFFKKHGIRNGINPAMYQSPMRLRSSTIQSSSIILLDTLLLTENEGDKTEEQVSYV

Compound | EC50 [1] | 5-HT2B % Act @ Max Dose [1] | 5-HT2A % Act @ Max Dose [2, 11] | % Compound Remaining (after 120 min) [3] | EC50 [4] | 5-HT1A % Act @ Max Dose [4] | % Compound Remaining (after 120 min) [5] | microsomal CLint at 1 μM [7] | t1/2 [3] | t1/2 [5] | t1/2 [7] | further results
c1ccc2c(CCN3CCC3)c[nH]c2c1 [Compound 1, 3-(2-(azetidin-1-yl)ethyl)-1H-indole fumarate] | 917 nM | 22.6% | 73.2% | 111.3% | 745 nM | 135% | 91.9% | 12.4 µL/min/mg |  |  |  | EC50 [2, 12]: 90.4 nM; stability in mouse brain homogenate (in words) [3]: good stability; half-life at 1 μM [3]: > 4.82 h; fold more potent at 5-HT1A than dimethyl (and methylethyl) counterparts [4]: > 50 fold; stability in rat brain homogenate (in words) [5]: good stability; half-life at 1 μM [5]: > 4.82 h; Average HTR Over 20-min Test ([6]; dose 0.1 mg/kg): 5.00; Average HTR Over 20-min Test ([6]; dose 1 mg/kg): 2.17; Average HTR Over 20-min Test ([6]; dose 10 mg/kg): 1.00; half-life at 1 μM [7]: 1.86 h; metabolic stability in HLM compared with dimethyl counterpart [7]: greater metabolic stability
COc1ccc2[nH]cc(CCN3CCC3)c2c1 [Compound 3, 3-(2-(azetidin-1-yl)ethyl)-5-methoxy-1H-indole fumarate] | 274 nM | 35.0% | 99.3% | 103.1% | 21.1 nM | 112% | 98% | < 9.6 µL/min/mg |  |  |  | EC50 [2, 12]: 7.15 nM; stability in mouse brain homogenate (in words) [3]: good stability; half-life at 1 μM [3]: > 4.82 h; fold more potent at 5-HT1A than dimethyl (and methylethyl) counterparts [4]: > 10 fold; stability in rat brain homogenate (in words) [5]: good stability; half-life at 1 μM [5]: > 4.82 h; half-life at 1 μM [7]: > 2.42 h; metabolic stability in HLM compared with dimethyl counterpart [7]: greater metabolic stability
CC(=O)Oc1cccc2[nH]cc(CCN3CCC3)c12 [Compound 4, 3-(2-(azetidin-1-yl)ethyl)-1H-indol-4-yl acetate] |  |  |  |  |  |  |  |  |  |  |  | stability compared with Compound 2 [8]: more stable to oxidation than Compound 2; hydrolysis of the ester to Compound 2 as active metabolite [9]: rapidly hydrolyzed
CCN(C)CCc1c[nH]c2cccc(O)c12 [Compound 4-HO-MET, 3-(2-(ethyl(methyl)amino)ethyl)-1H-indol-4-ol, reference compound] | > 10000 nM | 1.09% | 103% |  | 14700 nM | 73.0% |  |  |  |  |  | EC50 [2]: 15.1 nM; Average HTR Over 20-min Test ([6]; dose 0.1 mg/kg): 9.50; Average HTR Over 20-min Test ([6]; dose 1 mg/kg): 20.83; Average HTR Over 20-min Test ([6]; dose 10 mg/kg): 11.33; maximal effect in the HTR assay [6]: 20.8 head twitches/20 min
O=P(O)(O)Oc1cccc2[nH]cc(CCN3CCC3)c12 [Compound 5, 3-(2-(azetidin-1-yl)ethyl)-1H-indol-4-yl dihydrogen phosphate] |  |  |  |  |  |  |  |  |  |  |  | stability compared with Compound 2 [8]: more stable than Compound 2; hydrolysis of the ester to Compound 2 as active metabolite [9]: rapidly hydrolyzed
COc1ccc2[nH]cc(CCN(C)C)c2c1 [Compound 5-MeO-DMT, reference compound] |  | 17.6% | 106% | 91.2% |  | 100% | 0.3% | 102 µL/min/mg | >4.818 h | 0.24 h | 0.227 h | 
CN(C)CCc1c[nH]c2ccccc12 [DMT, N,N-dimethyltryptamine, reference compound] |  | 10.4% | 93.4% | 0.0% |  | 68.1% | 0.0% | 199 µL/min/mg | 0.107 h | 0.085 h | 0.117 h | 
COc1cc(CC(C)N)c(OC)cc1I (stereo not shown) [DOI, 4-iodo-2,5-dimethoxyamphetamine, reference compound] |  |  |  |  |  |  |  |  |  |  |  | maximal effect in the HTR assay [6]: 35.6 head twitches/20 min
CCN(C)CCc1c[nH]c2ccccc12 [MET, N-ethyl-2-(1H-indol-3-yl)-N-methylethan-1-amine, reference compound] | > 100000 nM | 22.5% | 36.2% |  | 89400 nM | 73.6% |  |  |  |  |  | 5-HT2C % Act @ Max Dose [10]: 89.7%; EC50 [10]: 28.3 nM; EC50 [2]: 17.1 nM
CN(C)CCc1c[nH]c2cccc(O)c12 [Psilocin, psilocin, reference compound] |  | 1.44% |  | 97.6% | 5260 nM | 66.4% | 46.1% | 127 µL/min/mg | >4.818 h | 1.913 h | 1.828 h | 
